The source made the active and inactive calls.
How the values were obtained:
Streptococcus = assay: GAS UMAA2166 growth inhibition – luminescence, BacTiterGlo, counter-screen for streptokinase expression inhibitor project, dose response (AID 1915); type: functional, organism-based;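 also: potency for reduction of bacterial viability or growth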
Cysteine protease ATG4B = Cysteine protease ATG4B (Homo sapiens, UniProt Q9Y4P1); type: functional;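 also: Fluorescence-based dose-response confirmation assay measuring inhibition of ATG4B activity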
Phospholipase A2 = Phospholipase A2 (Homo sapiens, UniProt P04054); type: functional;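 also: confirmatory dose-response counterscreen on phospholipase A2, testing hits that came from an ultra-high-throughput screen for ATG4B inhibitors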
Streptokinase A = molecular target: T1, Streptokinase A (Streptococcus pyogenes serotype M1, UniProt P10520); assay: viability-normalized secreted streptokinase activity reduction – plasminogen activation absorbance, OD405, dose response (AID 1914); type: functional, Streptococcus pyogenes M1 GAS;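 also: secreted streptokinase activity via plasminogen activation per viability signal from cell pellet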
T1 sequence (P10520 whole entry): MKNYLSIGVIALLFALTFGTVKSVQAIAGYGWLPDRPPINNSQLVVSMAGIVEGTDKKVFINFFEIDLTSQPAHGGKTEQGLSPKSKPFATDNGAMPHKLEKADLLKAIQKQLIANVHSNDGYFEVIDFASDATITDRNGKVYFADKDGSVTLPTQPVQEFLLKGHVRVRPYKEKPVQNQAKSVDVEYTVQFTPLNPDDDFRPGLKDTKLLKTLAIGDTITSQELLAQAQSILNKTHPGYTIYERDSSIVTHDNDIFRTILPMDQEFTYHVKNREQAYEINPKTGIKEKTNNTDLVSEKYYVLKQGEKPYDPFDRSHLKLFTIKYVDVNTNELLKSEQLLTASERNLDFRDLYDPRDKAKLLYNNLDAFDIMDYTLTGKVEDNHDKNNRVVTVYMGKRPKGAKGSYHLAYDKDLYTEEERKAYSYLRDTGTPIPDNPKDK

[1] = test system: Streptococcus sp. 'group A'; assay: Streptococcus pyogenes SK(-)GAS viability under kanamycin – luminescence, BacTiterGlo, confirmation, counter-screen for streptokinase expression inhibitor project, dose response (AID 1900); type: functional, organism-based
Candida albicans [2] = assay: C. albicans growth inhibition with fluconazole – CaCi-2 strain, Alamar Blue, dry powder, set 4, dose response (AID 488943); type: functional, organism-based
Candida albicans [3] = assay: fluconazole-resistant Candida strain growth inhibitors – CaCi-8 strain, dry powder, set 4, dose response (AID 488950); type: functional, organism-based
Candida albicans [4] = assay: antifungal activity against resistant Candida strain – CaCi-8, fluconazole, Alamar Blue, dry powder, dose response (AID 488807); type: functional, organism-based
Hexokinase HKDC1 = Hexokinase HKDC1 (Homo sapiens, UniProt Q2TB90); assay: SAR analysis of small molecule inhibitors of hexokinase domain containing I (HKDC1). [Related pubchem assays (depositor defined):AID493160, AID493190]; type: functional
Hexokinase-1 = Hexokinase-1 (Homo sapiens, UniProt P19367); assay: SAR analysis of small molecule inhibitors of hexokinase domain containing I (HKDC1) in the hexokinase 1 selectivity assay. [Related pubchem assays (depositor defined):AID493160, AID493190]; type: functional
[5] = cytotoxicity toward Colo320 cells – cell-based, CellTiter-Glo luminescence, IC50, dose response (AID 1117334); type: functional; conditions: COLO 320
[6] = RKO cell viability reduction, dose response, CellTiter-Glo luminescence (AID 1117322); type: functional
HSP90 = HSP90 (Plasmodium falciparum 3D7, UniProt Q8IL32); type: functional, organism-based
[7] = cytotoxicity toward HCT116 cells – cell-based, CellTiter-Glo luminescence, IC50, dose response (AID 1117332); type: functional; conditions: HCT-116
[8] = Reduced DLD-1 viability, concentration-response, CellTiter-Glo luminescence (AID 1117352); type: functional
[9] = cytotoxicity toward HT-29 cells – cell-based, CellTiter-Glo luminescence, IC50, dose response (AID 1117330); type: functional
[10] = CellTiter-Glo luminescence survival assay, SW480 colon tumor line, concentration-response curve, half-maximal inhibitory concentration (AID 1117338); type: functional
[11] = molecular target: Heat shock protein HSP 90-alpha (Homo sapiens, UniProt P07900); type: functional, organism-based
[12] = SNU-C1 cell viability reduction, dose response, CellTiter-Glo luminescence (AID 1117323); type: functional, cell-based
[13] = rise of 2N DNA cells, HeLa – IC50, dose response (AID 1117349); type: functional, cell-based
Paired box protein Pax-8 = Paired box protein Pax-8 (Homo sapiens, UniProt Q06710); assay: PAX8 transcriptional activity inhibition in RMG-I – RMG-I cells, luciferase, cherry-pick, dose response (AID 687027); type: functional, cell-based;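 also: luciferase reporter driven by Pax8 target thyroperoxidase promoter measured by SteadyGlo luminescence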
[14] = viability loss of HPDE-C7K cells – cell-based, fluorescence, HTS, primary screen (AID 431); type: functional; conditions: Homo sapiens
[15] = rise of 4N DNA cells, HeLa – IC50, dose response (AID 1117351); type: functional, cell-based
[16] = HPDE-C7 pancreatic duct cell viability loss – fluorescence, HTS (AID 430); type: functional, cell-based; conditions: Homo sapiens

Sequence of HSP90 (Q8IL32 whole entry): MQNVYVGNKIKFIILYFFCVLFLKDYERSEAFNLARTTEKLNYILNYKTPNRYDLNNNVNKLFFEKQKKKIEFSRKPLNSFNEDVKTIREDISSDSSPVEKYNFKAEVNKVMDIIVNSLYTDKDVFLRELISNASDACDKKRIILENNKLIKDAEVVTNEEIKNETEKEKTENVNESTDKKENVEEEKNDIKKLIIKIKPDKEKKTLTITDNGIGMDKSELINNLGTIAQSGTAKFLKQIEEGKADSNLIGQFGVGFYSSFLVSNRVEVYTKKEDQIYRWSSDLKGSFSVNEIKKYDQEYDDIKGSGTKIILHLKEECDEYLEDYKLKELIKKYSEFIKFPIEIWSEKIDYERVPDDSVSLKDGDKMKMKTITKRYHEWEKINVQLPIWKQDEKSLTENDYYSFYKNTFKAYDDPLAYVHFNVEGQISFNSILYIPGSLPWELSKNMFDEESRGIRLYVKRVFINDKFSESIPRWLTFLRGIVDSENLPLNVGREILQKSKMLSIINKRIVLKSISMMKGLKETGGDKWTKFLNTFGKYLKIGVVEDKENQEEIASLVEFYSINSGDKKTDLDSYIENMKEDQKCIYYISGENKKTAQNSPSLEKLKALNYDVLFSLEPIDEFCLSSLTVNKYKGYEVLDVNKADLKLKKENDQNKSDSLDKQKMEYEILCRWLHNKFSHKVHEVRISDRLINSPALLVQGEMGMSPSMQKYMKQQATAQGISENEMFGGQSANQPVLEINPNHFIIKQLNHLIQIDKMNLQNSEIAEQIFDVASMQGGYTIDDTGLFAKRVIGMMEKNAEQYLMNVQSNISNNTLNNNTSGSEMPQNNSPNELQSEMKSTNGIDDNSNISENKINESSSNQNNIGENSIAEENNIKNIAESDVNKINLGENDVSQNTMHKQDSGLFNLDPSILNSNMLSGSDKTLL
Sequence of Hexokinase-1 (P19367 whole entry, the tested form may be a part): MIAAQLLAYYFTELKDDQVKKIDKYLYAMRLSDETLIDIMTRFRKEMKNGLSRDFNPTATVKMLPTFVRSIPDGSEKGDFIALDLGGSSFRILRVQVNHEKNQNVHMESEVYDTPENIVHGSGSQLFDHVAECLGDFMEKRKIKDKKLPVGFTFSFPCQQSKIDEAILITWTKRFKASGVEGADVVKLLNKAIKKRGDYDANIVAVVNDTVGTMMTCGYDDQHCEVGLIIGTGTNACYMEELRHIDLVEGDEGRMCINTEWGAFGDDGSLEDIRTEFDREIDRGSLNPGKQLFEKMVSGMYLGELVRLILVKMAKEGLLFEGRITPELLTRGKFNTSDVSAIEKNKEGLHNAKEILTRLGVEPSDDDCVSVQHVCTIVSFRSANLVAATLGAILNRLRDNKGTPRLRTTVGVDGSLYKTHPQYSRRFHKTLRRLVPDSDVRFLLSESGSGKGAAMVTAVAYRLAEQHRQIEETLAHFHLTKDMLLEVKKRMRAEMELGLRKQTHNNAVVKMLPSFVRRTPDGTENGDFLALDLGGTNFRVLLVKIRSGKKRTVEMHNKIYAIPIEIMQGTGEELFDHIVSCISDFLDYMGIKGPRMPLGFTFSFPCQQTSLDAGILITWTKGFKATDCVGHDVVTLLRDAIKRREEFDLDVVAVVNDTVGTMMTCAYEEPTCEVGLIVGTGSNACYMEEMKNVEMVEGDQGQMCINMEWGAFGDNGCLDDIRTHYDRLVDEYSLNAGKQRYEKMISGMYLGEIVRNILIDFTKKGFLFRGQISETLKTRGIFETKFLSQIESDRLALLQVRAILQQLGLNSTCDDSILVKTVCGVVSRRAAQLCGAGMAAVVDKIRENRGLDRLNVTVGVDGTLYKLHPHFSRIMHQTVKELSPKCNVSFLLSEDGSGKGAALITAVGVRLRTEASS
Sequence of Hexokinase HKDC1 (Q2TB90 whole entry, the tested form may be a part): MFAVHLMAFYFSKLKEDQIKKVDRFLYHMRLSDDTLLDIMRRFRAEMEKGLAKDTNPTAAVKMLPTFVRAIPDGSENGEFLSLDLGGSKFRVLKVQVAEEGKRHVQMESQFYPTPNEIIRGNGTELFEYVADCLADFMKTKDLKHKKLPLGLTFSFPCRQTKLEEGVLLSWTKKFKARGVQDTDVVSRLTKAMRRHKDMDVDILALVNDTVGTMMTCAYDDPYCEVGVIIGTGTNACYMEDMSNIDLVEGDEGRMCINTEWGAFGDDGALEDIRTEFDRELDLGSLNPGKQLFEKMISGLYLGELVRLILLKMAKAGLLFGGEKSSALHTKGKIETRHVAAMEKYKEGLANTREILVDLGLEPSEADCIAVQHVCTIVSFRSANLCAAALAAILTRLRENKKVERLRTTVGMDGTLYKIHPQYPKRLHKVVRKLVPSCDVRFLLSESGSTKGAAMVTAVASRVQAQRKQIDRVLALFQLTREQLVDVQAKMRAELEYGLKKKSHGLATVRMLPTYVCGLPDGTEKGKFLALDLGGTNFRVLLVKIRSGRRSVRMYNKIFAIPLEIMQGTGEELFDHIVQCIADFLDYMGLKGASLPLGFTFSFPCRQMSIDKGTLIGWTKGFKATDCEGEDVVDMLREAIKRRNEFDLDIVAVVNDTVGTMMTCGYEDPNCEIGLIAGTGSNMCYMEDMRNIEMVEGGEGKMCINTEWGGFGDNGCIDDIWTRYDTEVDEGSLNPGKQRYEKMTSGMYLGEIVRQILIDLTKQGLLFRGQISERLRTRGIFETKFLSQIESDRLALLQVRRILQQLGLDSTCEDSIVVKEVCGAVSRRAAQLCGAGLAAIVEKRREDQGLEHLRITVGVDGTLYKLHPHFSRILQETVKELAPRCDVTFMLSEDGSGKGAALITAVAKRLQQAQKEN
Sequence of Cysteine protease ATG4B (Q9Y4P1 whole entry): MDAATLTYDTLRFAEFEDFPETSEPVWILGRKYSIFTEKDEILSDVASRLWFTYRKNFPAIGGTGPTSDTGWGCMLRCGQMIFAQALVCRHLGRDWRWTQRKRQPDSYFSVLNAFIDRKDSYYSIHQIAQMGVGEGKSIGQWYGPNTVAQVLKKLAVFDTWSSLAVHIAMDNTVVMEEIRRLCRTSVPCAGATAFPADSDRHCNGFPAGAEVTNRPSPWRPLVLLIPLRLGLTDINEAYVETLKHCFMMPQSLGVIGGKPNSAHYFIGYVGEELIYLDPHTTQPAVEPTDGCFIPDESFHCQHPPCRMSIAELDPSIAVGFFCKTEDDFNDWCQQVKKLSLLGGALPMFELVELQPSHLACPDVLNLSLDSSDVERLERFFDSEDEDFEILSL
Sequence of Phospholipase A2 (P04054 whole entry): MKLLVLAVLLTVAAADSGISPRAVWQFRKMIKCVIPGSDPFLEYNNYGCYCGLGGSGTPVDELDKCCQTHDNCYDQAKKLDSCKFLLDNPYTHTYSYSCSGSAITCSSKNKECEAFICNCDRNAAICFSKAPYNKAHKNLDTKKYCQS
Sequence of Paired box protein Pax-8 (Q06710 whole entry): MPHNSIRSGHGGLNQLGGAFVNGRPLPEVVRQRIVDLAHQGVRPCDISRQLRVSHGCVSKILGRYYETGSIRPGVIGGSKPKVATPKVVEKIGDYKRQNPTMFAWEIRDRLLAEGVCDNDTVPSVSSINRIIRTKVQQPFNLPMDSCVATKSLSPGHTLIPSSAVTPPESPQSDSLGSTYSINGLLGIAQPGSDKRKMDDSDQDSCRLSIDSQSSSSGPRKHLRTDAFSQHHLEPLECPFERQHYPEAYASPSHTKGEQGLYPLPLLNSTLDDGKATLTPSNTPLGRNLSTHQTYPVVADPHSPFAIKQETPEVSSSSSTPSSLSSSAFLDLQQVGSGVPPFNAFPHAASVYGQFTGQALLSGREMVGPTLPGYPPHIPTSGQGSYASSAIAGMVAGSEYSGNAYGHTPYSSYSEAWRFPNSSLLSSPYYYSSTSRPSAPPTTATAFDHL

## CSc1nnc2nc3c(c(O)n12)C1(CCCCC1)Cc1ccccc1-3
Streptococcus
  EC50: 123 µM (active)
Cysteine protease ATG4B
  IC50: 7.09 µM (active)
Phospholipase A2
  IC50: 5.6 µM (active)
Streptokinase A
  EC50: > 150 µM (not active)
[1]
  EC50: 7.86 µM (active)

## O=C(c1ccc(Cl)cc1)N1CCN(c2ccc(Cl)cc2)CC1
Candida albicans [2]
  AC50: 4.76 µM (active)
Candida albicans [3]
  AC50: 5.25 µM (active)
Candida albicans [4]
  AC50: 0.375 µM (active)

## N#Cc1ccc(CSc2nnc(NC(=O)c3ccncc3)s2)cc1
Hexokinase HKDC1
  IC50: > 80 µM (inactive)
Hexokinase-1
  IC50: > 80 µM (inactive)

## Oc1c(I)cc(I)c2cccnc12 [IODOQUINOL]
[5]
  IC50: 0.0213 µM (active)
[6]
  IC50: 0.0227 µM (active)
HSP90
  AC50: 0.314 µM (active)
[7]
  IC50: 0.041 µM (active)
[8]
  IC50: 0.0178 µM (active)
[9]
  IC50: 0.705 µM (active)
[10]
  IC50: 0.0036 µM (active)
[11]
  AC50: 0.391 µM (active)
[12]
  IC50: 0.0387 µM (active)
[13]
  IC50: > 10 µM (inactive)
Paired box protein Pax-8
  AC50: 4.87 µM (active)
[14]
  EC50: 7.36 µM (active)
[15]
  IC50: > 10 µM (inactive)
[16]
  EC50: 17.1 µM (active)

Reference: ChEMBL document CHEMBL1201862, “PubChem BioAssay data set” (2004)
